Where a name gives a salt, the structure may show the parent alone. ± gives the standard error.
Columns and labels:
621-102 (TSC2-deficient) = assay: relative viability vs DMSO; higher = less cytotoxic; details: serum: 10% FBS, 72 h
621-103 (TSC2-rescued) = assay: as above; details: serum: 10% FBS, 72 h
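Also: immortalized renal angiomyolipoma cells stably carrying empty vector or TSC2, dosed in 384-well plates in DMEM, viability normalized to vehicle-treated wells within each plate.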

| Compound | relative viability (621-102 (TSC2-deficient); 0.0001 µM) | relative viability (621-102 (TSC2-deficient); 0.001 µM) | relative viability (621-102 (TSC2-deficient); 0.01 µM) | relative viability (621-102 (TSC2-deficient); 0.1 µM) | relative viability (621-102 (TSC2-deficient); 1 µM) | relative viability (621-102 (TSC2-deficient); 10 µM) | relative viability (621-103 (TSC2-rescued); 0.0001 µM) | relative viability (621-103 (TSC2-rescued); 0.001 µM) | relative viability (621-103 (TSC2-rescued); 0.01 µM) | relative viability (621-103 (TSC2-rescued); 0.1 µM) | relative viability (621-103 (TSC2-rescued); 1 µM) | relative viability (621-103 (TSC2-rescued); 10 µM) |
| --- | --- | --- | --- | --- | --- | --- | --- | --- | --- | --- | --- | --- |
| COc1ccc([C@]2(C#N)CC[C@@H](C(=O)O)CC2)cc1OC1CCCC1 | 96.5 ± 2.4% | 102.9 ± 0.13% | 95.4 ± 2.6% | 102 ± 2.7% | 105 ± 1.7% | 98.6 ± 0.28% | 102.2 ± 0.093% | 98 ± 0.98% | 97.1 ± 1.8% | 106.2 ± 0.53% | 93.85 ± 0.76% | 93.4 ± 2.3% |
| CC1(C)C(=O)N(CCN2CCC(C(=O)c3ccc(F)cc3)CC2)c2ccccc21 | 102.5 ± 0.86% | 103 ± 1.4% | 97.2 ± 4.5% | 97.5 ± 1.1% | 97 ± 1.2% | 97.4 ± 5.7% | 101 ± 2.5% | 97.9 ± 4.5% | 96.93 ± 0.26% | 101 ± 4.7% | 96.7 ± 2% | 94.8 ± 1.9% |
| CN(C)CC/C=C1/c2ccccc2Sc2ccc(Cl)cc21 [Chlorprothixene] | 93.1 ± 1.6% | 102 ± 5.2% | 102 ± 4.3% | 102.9 ± 0.47% | 108 ± 4% | 100.8 ± 0.6% | 103 ± 2.4% | 106 ± 5.4% | 102.3 ± 0.14% | 108 ± 2.9% | 108.9 ± 0.97% | 89.1 ± 2% |
| COc1cc(Nc2c(C#N)cnc3cc(OCCCN4CCN(C)CC4)c(OC)cc23)c(Cl)cc1Cl [Bosutinib (SKI-606)] | 94.6 ± 3.7% | 109 ± 3.2% | 92.7 ± 6.8% | 103 ± 7.9% | 64.3 ± 7.2% | 3.18 ± 0.88% | 85.39 ± 0.5% | 93.6 ± 3% | 94.5 ± 6% | 90.2 ± 6.4% | 69.5 ± 4% | 1.86 ± 0.19% |
| COc1ccc(-c2ccc3c(N4CCOCC4)nc(N4C[C@@H](C)O[C@@H](C)C4)nc3n2)cc1CO | 74.3 ± 2.3% | 78 ± 8.3% | 65.8 ± 4.5% | 81.3 ± 2.2% | 70.087 ± 0.057% | 27.6 ± 1.1% | 99.9 ± 3% | 88.657 ± 0.066% | 102.1 ± 0.57% | 104 ± 1.4% | 83.1 ± 2.7% | 41.9 ± 0.85% |
| O=C1c2ccccc2C(=O)c2c1ccc(O)c2O [Alizarin] | 108 ± 2.3% | 110 ± 0.84% | 108 ± 4.6% | 105 ± 1.5% | 107 ± 2.9% | 83 ± 3% | 101 ± 1.6% | 102 ± 5% | 101.4 ± 0.27% | 99.9 ± 3.2% | 95.2 ± 4.5% | 97.3 ± 1.1% |
| O=c1cc(-c2ccc(O)cc2)oc2cc(O)cc(O)c12 [Apigenin] | 90.7 ± 0.81% | 105 ± 2.6% | 110 ± 2.2% | 113 ± 5.3% | 111 ± 2.9% | 112 ± 5.7% | 112 ± 4.7% | 128 ± 1.4% | 108.9 ± 0.2% | 115 ± 4.3% | 111 ± 4.9% | 125 ± 4% |
| O=C(NC[C@H](O)CO)c1ccncc1Nc1ccc(I)cc1F | 100.3 ± 0.48% | 92 ± 13% | 101 ± 3.2% | 97.01 ± 0.18% | 90.5 ± 2% | 55.7 ± 0.91% | 101.8 ± 0.97% | 104 ± 1.9% | 105 ± 1.4% | 103.5 ± 0.29% | 99.919 ± 0.052% | 78.4 ± 1.2% |
| COc1nc(C)cnc1NS(=O)(=O)c1cccnc1-c1ccc(-c2nnco2)cc1 [Zibotentan (ZD4054)] | 118 ± 2.6% | 100 ± 3.1% | 109.9 ± 0.58% | 114 ± 2.4% | 105 ± 3.6% | 120 ± 1.6% | 103.31 ± 0.00057% | 99.8 ± 1.5% | 100.2 ± 0.14% | 100.5 ± 0.75% | 101 ± 1% | 102.5 ± 0.2% |
| CC(C)c1cc(C(C)C)c(CC(=O)NS(=O)(=O)Oc2c(C(C)C)cccc2C(C)C)c(C(C)C)c1 [Avasimibe (CI-1011)] | 106.2 ± 1% | 97.5 ± 2.1% | 95.2 ± 2.4% | 99.6 ± 1.3% | 104.3 ± 0.53% | 106 ± 3.6% | 108 ± 8.1% | 99.44 ± 0.32% | 105 ± 3.1% | 101 ± 0.45% | 97.89 ± 0.25% | 97.8 ± 3.3% |
| CC(C[N+](C)(C)C)OC(N)=O (stereo not drawn) [Bethanechol chloride] | 103 ± 3.5% | 105 ± 3.1% | 104 ± 2.9% | 103.4 ± 0.49% | 100 ± 1.8% | 101 ± 3% | 96.28 ± 0.78% | 102 ± 1.9% | 105 ± 1.4% | 105 ± 0.93% | 103.7 ± 0.9% | 101.6 ± 0.12% |
| Fc1cc(-c2cccc3ncc(-c4cnn(C5CCNCC5)c4)nc23)cc(F)c1CN1CCOCC1 [NVP-BSK805 dihydrochloride] | 102 ± 3.5% | 99.9 ± 4% | 101 ± 2.5% | 103 ± 1.4% | 89.2 ± 9.6% | 4.33 ± 1.8% | 88.7 ± 5.9% | 102 ± 1.9% | 111 ± 4.3% | 104 ± 4.5% | 77.1 ± 0.88% | 4.07 ± 1.5% |
| COc1cc([C@@H]2c3cc4c(cc3[C@@H](O[C@@H]3O[C@@H]5CO[C@@H](C)O[C@H]5[C@H](O)[C@H]3O)[C@H]3COC(=O)[C@H]23)OCO4)cc(OC)c1O [Etoposide (Etopophos)] | 109.8 ± 0.44% | 108.1 ± 0.98% | 114 ± 3.7% | 104 ± 2.5% | 81.3 ± 5.1% | 54.6 ± 2.9% | 99.77 ± 0.28% | 98.19 ± 0.16% | 99.6 ± 1.2% | 98.7 ± 1% | 91.5 ± 2.3% | 55.6 ± 0.8% |
| CC[C@H](c1ccc(O)cc1)[C@@H](CC)c1ccc(O)cc1 [Hexestrol (Bibenzyl)] | 105 ± 2.8% | 121 ± 3.7% | 108 ± 5.3% | 100 ± 6.5% | 113 ± 2.7% | 99.9 ± 5.4% | 89.4 ± 5.1% | 89.3 ± 4% | 90.4 ± 1% | 90 ± 2.3% | 95 ± 2.3% | 95.35 ± 0.45% |
| O=C1[C@H](Cc2ccc(O)cc2)N2C(=O)CCN(C(=O)NCc3ccccc3)[C@H]2CN1Cc1cccc2ccccc12 [ICG-001] | 116 ± 2.7% | 105.3 ± 0.41% | 106 ± 1.1% | 102 ± 4.2% | 98.9 ± 2.3% | 52.9 ± 0.89% | 105 ± 2.9% | 109 ± 7.1% | 108.7 ± 0.74% | 103 ± 1.3% | 109 ± 1.5% | 37.8 ± 0.69% |
| COc1cc(OC)c(OC)cc1C=O [Asaraldehyde] | 112 ± 3.5% | 116.4 ± 0.26% | 109.6 ± 0.37% | 96.2 ± 1.4% | 113.4 ± 0.62% | 92.3 ± 1.9% | 101 ± 2% | 103 ± 2% | 94.8 ± 1.3% | 99.98 ± 0.77% | 102.5 ± 0.13% | 96.06 ± 0.3% |
| Nc1ccn([C@H]2CC[C@@H](CO)O2)c(=O)n1 [Zalcitabine] | 92.2 ± 0.98% | 99.9 ± 1.3% | 94.1 ± 2.3% | 103.3 ± 0.81% | 102 ± 3.1% | 93.26 ± 0.69% | 90.4 ± 5.7% | 95.48 ± 0.79% | 105 ± 1.1% | 105 ± 4.4% | 100.4 ± 0.83% | 102 ± 1.8% |
| CNC(=C[N+](=O)[O-])NCCSCc1ccc(CN(C)C)o1 [Ranitidine HCl] | 103 ± 8.4% | 104 ± 0.46% | 101 ± 2.8% | 97.8 ± 2.7% | 105 ± 2.8% | 97.6 ± 0.51% | 107 ± 3.1% | 106 ± 3.6% | 103.5 ± 0.96% | 106 ± 1.3% | 103 ± 3% | 100.1 ± 0.51% |
| CN(C)CCCN1c2ccccc2CCc2ccc(Cl)cc21 [Clomipramine HCl] | 114 ± 2.6% | 109 ± 1.4% | 111 ± 2.2% | 111 ± 4% | 109.6 ± 0.49% | 85.7 ± 0.93% | 100 ± 4.4% | 102 ± 1.1% | 102 ± 3.2% | 108 ± 3% | 93.4 ± 5.5% | 75.7 ± 1.8% |
